According to patent US20260265316A1, “IMMUNOTHERAPEUTIC METHODS, COMPOUNDS, AND COMPOSITIONS FOR TREATING OR PREVENTING CELIAC DISEASE” (DBV Technologies, priority 2023, published 2026):

Legend:
[1] = Description: Freeze-dried aliquots of the three gliadin polypeptide constructs Cv6, Av6, and 4K, as well as the four building blocks BB1, BB2a, BB3a, and BB4a were reconstituted in pure water, loaded on a PET-Ti backing film and dried in an oven (at ~30° C.). Immediately after drying, dry deposits were reconstituted at five different molarities (approximately 1.8, 0.91, 0.45, 0.091 or 0.045 mM) by pipetting up and down with either pure water (A), PBS 1× (B), or artificial perspiration (C). The concentration in soluble material was measured by HPLC at 215 nm from the solutions recovered from PET-Ti backing films. Data are median+interquartile range of the different molarities tested. Data are expressed as the percentage of soluble material recovered, based on the expected concentration (all values above 100% were set to 100).
Immediately after drying, dry deposits were reconstituted at five different concentrations (20, 10, 5, 1 and 0.5 mg/mL) by pipetting up and down with either pure water (A), PBS 1× (B), or artificial perspiration (C). The concentration in soluble material was measured by HPLC at 215 nm from the solutions recovered from PET-Ti backing films. Data are presented as median+interquartile range of the different molarities tested. Data are expressed as the percentage of soluble material recovered, based on the expected concentration (all values above 100% were set to 100). (D) As an illustration, photographs of the reconstitution of dry deposits with pure water are shown and annotated.
Immediately after drying, deposits were reconstituted by pipetting up and down with each of pure water, PBS 1× at pH 7.0, and artificial perspiration at pH 4.5, each at five different molarities (approximately 1.8, 0.91, 0.45, 0.091, and 0.045 mM). The concentration in soluble material was measured by HPLC at 215 nm.
Immediately after drying, patch deposits were reconstituted by pipetting up and down with each of pure water, PBS 1× at pH 7.0, and artificial perspiration at pH 4.5, at five different concentrations (20, 10, 5, 1, and 0.5 mg/mL). The concentration in soluble material was measured by HPLC at 215 nm.

[2] = test system: circulating gluten-specific CD4+ T cells in whole blood of HLA-DQ2+ CeD patients; assay: Whole blood IL-2 cytokine release assay, HLA-DQ2+ CeD participants; type: cell-based, human; conditions: HLA-DQ2+ donors; whole blood, 24 hours
Description: FIGS. 10A-10B are graphs depicting the evaluation of the ability of various molarities of three gliadin polypeptides (Cv6, Av6, and 4K), two peptide mixes containing either the four individual building blocks BB1, BB2a, BB3a and BB4a (BB1-4a) or two Nexvax2 peptides (Nex01/02), and six individual building blocks or peptides (BB1, BB2a, BB3a, BB4a, Nex01, and Nex02) to restimulate gluten-specific T cell collected from HLA-DQ2+ CeD patients using a whole blood IL-2 release assay. The whole blood cytokine release assay was performed in six HLA-DQ2+ participants with biopsy-confirmed celiac disease. Whole blood was stimulated with the three gliadin polypeptide constructs Cv6, Av6, and 4K at 10, 2.5, and 0.5 μM final molarities, as indicated. Alternatively, whole blood was stimulated with a mix of peptides containing either the four building blocks BB1, BB2a, BB3a, and BB4a (BB1-4a) or Nex01 and Nex 02 (Nex01/02) at 10, 2.5, and 0.5 μM final molarities. Building blocks (BB1, BB2a, BB3a, and BB4a), Nex01, and Nex02 were also tested as individual peptides, at a single concentration of 10 μM. After 24 hours of incubation, the concentration of IL-2 was quantified from plasma using an MSD IL-2 S-plex ELISA. Data are expressed in femtogram/mL of plasma (A), or as fold change from the negative control (PBS 1×) (B). Symbols represent individual participants (patient ID); bars represent median+interquartile range of individual values.
(§1) The overarching objective of this assay was to validate that the polypeptide constructs (Cv6, Av6, and 4K) can be recognized and processed by human APCs, and they can then promote the activation of gluten-specific effector/memory CD4^+ T cells in CeD patients. A Cytokine Release Assay (CRA) was used (previously described in the literature: Anderson et al., Clinical & Experimental Immunology, 2021 June; 204(3): 321-334; and in Hardy et al., Frontiers in Immunology, 2021, Vol. 12, Article 661662, the entire contents of each of which are incorporated by reference herein). This assay quantifies IL-2 produced by circulating gluten-specific CD4^+ T cells present in the blood of CeD patients upon in vitro stimulation with gluten-derived antigens. Due to the extremely high sensitivity of this CRA, no oral exposure to gluten was required prior to blood sampling.
(§2) Informed consent was obtained from all subjects prior to blood collection.
(§3) Unfractionated blood (225 μL per well of a 96-well plate) was then rapidly restimulated for 24 hours with each of three of the polypeptide constructs provided herein (SEQ ID NO:23 wherein X is C [Cv6, i.e., SEQ ID NO:49], SEQ ID NO:23 wherein X is A [Av6, i.e., SEQ ID NO:50], and SEQ ID NO:46 [4K]) and with each of four individual building blocks (SEQ ID NO:15 wherein Z is E [BB1], SEQ ID NO:16 wherein Z is E [BB2a], SEQ ID NO:20 wherein Z is E [BB3a], and SEQ ID NO:18 wherein Z is E [BB4a]). The concentrations of the polypeptide constructs ranged from 0.5 to 10 micromolar, and the concentration for each individual building block was 10 micromolar. […] These two peptides comprise an N-terminal pyroglutamate and a C-terminal amide. Nex01 and Nex02 were the two gliadin peptides used in the Nexvax2 immunotherapeutic vaccine that was intended to restore immune tolerance to gluten in HLA-DQ2.5+ CeD patients. A positive control consisted of blood cells stimulated with phytohemagglutinin (PHA) (10 μg/mL) which activates all T cells regardless of their antigen specificity (i.e., a polyclonal activator). Negative controls consisted of cells treated with buffer only (PBS 1×).
(§4) After incubation for 24 hours at 37° C. and 5% CO2, plasma was separated from whole blood by centrifugation. Plasma was collected from each well and replicates (n=6 replicates per test) pooled. All plasma samples were frozen at −80° C. until analysis. Single plasma aliquots (100 μL) were thawed and analyzed in duplicate using MSD IL-2 S-plex according to the manufacturer's instructions.

[3] = test system: circulating gluten-specific CD4+ T cells in whole blood of HLA-DQ8+ CeD patients; assay: Whole blood IL-2 cytokine release assay, HLA-DQ8+ CeD participants; type: cell-based, human; conditions: HLA-DQ8+ donors; whole blood, 24 hours
Description: FIGS. 11A-11B are graphs depicting the evaluation of the ability of various molarities of three gliadin polypeptides (Cv6, Av6, and 4K), two peptide mixes containing either the four individual building blocks BB1, BB2a, BB3a and BB4a (BB1-4a) or two Nexvax2 peptides (Nex01/02), and six individual building blocks or peptides (BB1, BB2a, BB3a, BB4a, Nex01, and Nex02) to restimulate gluten-specific T cell collected from HLA-DQ8+ CeD patients using a whole blood IL-2 release assay. The whole blood cytokine release assay was performed in four HLA-DQ8+ participants with biopsy-confirmed celiac disease as described in FIG. 10. Data are expressed in femtogram/mL of plasma (A), or as fold change from the negative control (PBS 1×) (B). Symbols represent individual participants (patient ID); bars represent the median+interquartile range of individual values.
as §1, §2, §3, §4

median percentage of soluble material recovered from the patch backing film [1]	Substance	IL-2 response (in words) [2]	IL-2 response (in words) [3]
93-100%	Ac-QLQPFPQPELPYPQPELPYPQPELPYPQPQP-NH2 [BB1]	potent IL-2 responses	no or low responses
93-100%	H-PQQPFPQPEQPFPWQPQ-NH2 [BB3a]	potent IL-2 responses	no or low responses
